Measurements from PMC8151276, “An Integrated Approach toward NanoBRET Tracers for Analysis of GPCR Ligand Engagement” (Molecules, 2021).
One block for each molecule: values may come before it.

How the values were obtained:
[1] = molecular target: T1, ADRA2C (Homo sapiens, UniProt P18825); assay: NanoBRET screen HiBiT-ADRA2C in HEK293; assay type: binding
T1 construct: purchased Promega (in-house HiBiT-GPCR construct library, NanoBRET)
T1 sequence (P18825 1-462): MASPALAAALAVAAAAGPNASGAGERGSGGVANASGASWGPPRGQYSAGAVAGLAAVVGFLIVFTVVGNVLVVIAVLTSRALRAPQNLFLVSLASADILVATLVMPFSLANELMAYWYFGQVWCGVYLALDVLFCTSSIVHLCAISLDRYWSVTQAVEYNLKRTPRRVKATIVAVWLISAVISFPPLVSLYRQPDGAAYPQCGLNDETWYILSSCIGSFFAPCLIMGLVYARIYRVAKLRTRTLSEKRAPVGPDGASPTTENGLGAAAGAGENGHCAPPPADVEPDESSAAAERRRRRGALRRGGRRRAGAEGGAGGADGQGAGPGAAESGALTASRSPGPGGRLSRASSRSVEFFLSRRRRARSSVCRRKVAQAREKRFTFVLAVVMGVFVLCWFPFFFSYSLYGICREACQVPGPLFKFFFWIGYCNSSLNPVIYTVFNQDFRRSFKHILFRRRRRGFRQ
Experimental: (§1) Each tracer candidate was screened across the entire library of HiBiT-GPCR constructs using NanoBRET as the detection modality. As depicted in Figure 4A, the specificity of interactions was evaluated through decrease in BRET due to competitive displacement of a bound tracer by excess parental compound. Each tracer was analyzed for binding to each HiBiT-GPCR fusion in the absence and in the presence of competing parental compound. Briefly, HEK293 cells were transfected with HiBiT-GPCR constructs diluted into promoterless DNA to reduce expression and maximize translocation to the cell surface. Each tracer candidate was then screened at concentrations of 1 μM and 0.1 μM across cells expressing these fusions. Cells were treated for 1.5 h with tracer either alone or in the presence of 20 μM competing parental compound (i.e., control). BRET was measured upon addition of purified LgBiT and subsequent complementation with HiBiT genetically fused to a GPCR. The specificity of interactions was assessed through a decrease in BRET signal due to competitive displacement of the bound tracer. To further gauge the robustness of these interactions, the fold response over the control (i.e., BRETtracer/BRETcontrol) was calculated. We chose a 1.5-fold response, which translates to ≥7-fold signal over noise as the minimal threshold required to score an interaction as positive. […]. Below we highlight the screening results obtained for our exemplary fluorescent tracers based on Clozapine, Amitriptyline and AZD1283.
(§2) HiBiT-GPCR DNA constructs were diluted in 10 mM Tris pH 8 to a final concentration of 0.01 μg/μL, arrayed in 96-well plates and stored at −20 °C. For transfection, HEK293 cells were suspended in Opti-MEM (without phenol red) supplemented with 2% fetal bovine serum (Seradigm) and 100 units/mL penicillin–streptomycin (Gibco) at a final concentration of 220,000 cells/mL and dispensed into white 96-well plates at 90 μL/well. Subsequent transfections and screens were carried using an Agilent Bravo Automated Liquid Handling Platform. First, the 96-well HiBiT DNA arrays were diluted 25-fold in Opti-MEM (without serum or phenol red) to a final concentration of 0.0004 μg/μL and 20 μL of the diluted DNAs were transferred into new 96-well plates. Next, promoterless carrier DNA (1 μg/μL) was diluted 25-fold (0.04 μg/μL) and then dispensed into the diluted arrays at 20 μL/well. Following brief mixing, Viafect transfection reagent (Promega) diluted 16-fold into Opti-MEM was dispensed into the plates at 40 μL/well. After mixing by pipetting, plates were incubated for 10 min on the pipetting station deck. The DNA-transfection reagent complexes were then added to plates containing cells. To facilitate the screen, 10 μL of DNA-transfection reagent complexes were added in duplicates to the top 4 and bottom 4 rows, resulting in two identical 48-well arrays per plate. Plates with transfected cells were incubated for 18–20 h at 37 °C/5% CO2. A screen of each tracer across the entire library using two different concentrations requires duplicate plates of transfected cells. Depending on the number of tracers being screened, transfections can be scaled up using the same ratios. The next day, for each tracer, four 20× screening solutions in tracer dilution buffer (Promega) were prepared: two duplicates at final concentration of 20 μM and two duplicates at a final concentration of 2 μM. A competing unmodified compound was added to one of each duplicate at a final concentration of 400 μM. The four resulting solutions were diluted 4-fold in Opti-MEM without serum or phenol red to generate 5× solutions (5 µM and 0.5 µM tracer +/− 100 μM competing compound). To screen the library, a BioTek MultiFlo FX liquid dispenser was used to dispense 22.5 µL of tracer solution to the top 4 rows and 22.5 µL tracer + competing compound solution to the 4 bottom rows. Plates were briefly mixed on an orbital shaker and incubated for 1.5 h at room temperature. […]

[2] = molecular target: T2, C3AR1 (Homo sapiens, UniProt Q16581); assay: NanoBRET screen HiBiT-C3AR1 in HEK293; assay type: binding
T2 construct: purchased Promega (in-house HiBiT-GPCR construct library, NanoBRET)
T2 sequence (Q16581 1-482): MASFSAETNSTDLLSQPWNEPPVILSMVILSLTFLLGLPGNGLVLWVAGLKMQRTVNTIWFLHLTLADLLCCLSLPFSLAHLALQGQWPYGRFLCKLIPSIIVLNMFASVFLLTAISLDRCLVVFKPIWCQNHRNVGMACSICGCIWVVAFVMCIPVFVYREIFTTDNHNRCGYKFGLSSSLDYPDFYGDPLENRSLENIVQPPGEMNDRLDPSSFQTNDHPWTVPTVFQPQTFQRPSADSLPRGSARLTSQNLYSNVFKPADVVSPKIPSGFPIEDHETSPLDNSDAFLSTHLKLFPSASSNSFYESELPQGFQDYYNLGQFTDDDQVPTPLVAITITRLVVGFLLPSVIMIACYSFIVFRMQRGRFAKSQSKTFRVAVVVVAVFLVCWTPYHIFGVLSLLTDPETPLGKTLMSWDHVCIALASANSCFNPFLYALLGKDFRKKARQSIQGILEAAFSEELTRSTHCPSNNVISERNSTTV
Experimental: as §1, §2

SMILES: CN1CCN(C2=Nc3cc(Cl)ccc3Nc3ccc(CNC(=O)CCOCCOCCOCCOCCNC(=O)CCc4ccc5n4[B-](F)(F)[N+]4=C(c6ccc[nH]6)C=CC4=C5)cc32)CC1 [Clozapine-b-2-NB590]
NanoBRET Fold Response ([1]; ADRA2C, 0.1μM tracer): 1.25 | NanoBRET Fold Response ([1]; ADRA2C, 1μM tracer): 1.67 | NanoBRET Fold Response ([2]; C3AR1, 0.1μM tracer): 0.99 | NanoBRET Fold Response ([2]; C3AR1, 1μM tracer): 1.02

NanoBRET Fold Response ([1]; 0.1μM tracer): 1.01 | NanoBRET Fold Response ([1]; 1μM tracer): 0.79 | NanoBRET Fold Response ([2]; 0.1μM tracer): 0.88 | NanoBRET Fold Response ([2]; 1μM tracer): 0.98
SMILES: COc1ccc2c(n1)c(CCNC(C)=O)cn2CCNC(=O)CCc1ccc2n1[B-](F)(F)[N+]1=C(c3ccc[nH]3)C=CC1=C2 [Azamelatonin-1-NB590]

SMILES: CN(CCC=C1c2ccccc2CCc2ccccc21)C(=O)CCOCCOCCOCCOCCNC(=O)CCc1ccc2n1[B-](F)(F)[N+]1=C(c3ccc[nH]3)C=CC1=C2 [Amitriptyline-e-2-NB590]
NanoBRET Fold Response ([1]; tracer at 1μM): 1.00 | NanoBRET Fold Response ([2]; tracer at 1μM): 1.02

SMILES: O=C(CCc1ccc2n1[B-](F)(F)[N+]1=C(c3ccc[nH]3)C=CC1=C2)NCc1ccc(C(=O)NCCOCCOCCNCC(O)COc2cccc3ccccc23)cc1 (stereo not drawn) [Propranolol-3-NB590]
NanoBRET Fold Response ([1]; ADRA2C, 0.1μM): 0.95 | NanoBRET Fold Response ([1]; ADRA2C, 1μM): 1.05 | NanoBRET Fold Response ([2]; C3AR1, 0.1μM): 1.05 | NanoBRET Fold Response ([2]; C3AR1, 1μM): 1.07

NanoBRET Fold Response ([1]; ADRA2C, 0.1μM tracer): 1.80 | NanoBRET Fold Response ([1]; ADRA2C, 1μM tracer): 1.62 | NanoBRET Fold Response ([2]; C3AR1, 0.1μM tracer): 1.18 | NanoBRET Fold Response ([2]; C3AR1, 1μM tracer): 1.21
SMILES: O=C(CCOCCOCCOCCOCCNC(=O)CCc1ccc2n1[B-](F)(F)[N+]1=C(c3ccc[nH]3)C=CC1=C2)NCCCN1CCN(C2=Nc3cc(Cl)ccc3Nc3ccccc32)CC1 [Clozapine-a-2-NB590]
